{
  "source": "patent US9975860B2",
  "about": "“Anti-angiogenic compounds” (UNIVERSITY COLLEGE DUBLIN—NATIONAL UNIVERSITY OF IRELAND, …, priority 2014, dated 2018)",
  "type_in_all_cases": "cell-based, human",
  "key": {"PARP1 [1]": {"tested_on": "PARP1", "assay": "qPCR DNA repair gene expression in OE33R: PARP1", "settings": "10 μM, 24 hours", "protocol": "(§1) OE33P radiosensitive oesophageal adenocarcinoma cells and OE33R radioresistant oesophageal adenocarcinoma cells were used to test the effects of the compound 4 on DNA repair gene expression. Cells were maintained in RPMI media supplemented with 10% foetal calf serum, penicillin (100 U/ml) and streptomycin (100 μg/ml). A total of 300,000 cells, in 2 ml media, were seeded per well in 6 well plates and left to incubate for 24 hours. The media was replaced with solutions containing 10 μM of compound 4 or the equivalent volume of DMSO vehicle control. After 24 hours of treatment, RNA was extracted from the cells and converted to cDNA. qPCR was then conducted and expression of MMS19, SMUG1 PARP1 and MLH1 was quantified, […]"}, "[2]": {"tested_on": "OE33R radioresistant oesophageal adenocarcinoma cells", "assay": "Seahorse ECAR (glycolysis) in OE33R", "settings": "10 μM, 24 hours", "protocol": "(§2) OE33P radiosensitive oesophageal adenocarcinoma cells and OE33R radioresistant oesophageal adenocarcinoma cells were used to test the effects of the compound 4 on glycolysis. Cells were maintained in RPMI media supplemented with 10% foetal calf serum, penicillin (100 U/ml) and streptomycin (100 μg/ml). A total of 11,000 cells (OE33P) or 13,000 cells (OE33R), in 100 μl media, were seeded per well in 24 well plates and left to incubate for 24 hours, with an additional 150 μl media added after 5 hours. The media was replaced with solutions containing 10 μM of compound 4 or the equivalent volume of DMSO vehicle control. After 24 hours of treatment, media was replaced with modified DMEM supplemented with 0.5 mM glucose. Rates of glycolysis were determined using Seahorse Biosciences metabolism technology. The media was disposed and the cells washed with PBS. The cells were fixed with 1% glutaraldehyde for 15 minutes and then stained with crystal violet for 30 minutes. The plates were blotted and dried overnight. The cells were resuspended with 1% TritonX-100 and shaken for 15 minutes. The absorbance was read on a spectrophotometer at 595 nm Rates of glycolysis were then normalised to cell number."}, "[3]": {"tested_on": "OE33R radioresistant oesophageal adenocarcinoma cells", "assay": "Seahorse OCR (oxidative phosphorylation) in OE33R", "settings": "10 μM, 24 hours, p<0.05", "protocol": "as §2, with “radiosensitive” for “radiosensitive oesophageal adenocarcinoma cells”, “oxidative phosphorylation.” for “glycolysis.”, “11,000 OE33P” for “11,000”, “and” for “(OE33P) or”, “OE33R cells,” for “cells (OE33R),”, “oxidative phosphorylation” for “glycolysis”"}, "[4]": {"tested_on": "HT29-LUC radioresistant colorectal adenocarcinoma cells", "assay": "Seahorse ECAR (glycolysis) in HT29-LUC", "settings": "10 μM, 24 hours", "protocol": "as §2, with “HT29-LUC” for “OE33P radiosensitive oesophageal adenocarcinoma cells and OE33R”, “colorectal” for “oesophageal”, “of” for “of the”, “McCoy's 5A” for “RPMI”, “serum.” for “serum, penicillin (100 U/ml) and streptomycin (100 μg/ml).”, “20,000 cells,” for “11,000 cells (OE33P) or 13,000 cells (OE33R),”"}, "MLH1 [5]": {"tested_on": "MLH1", "assay": "qPCR DNA repair gene expression in OE33R: MLH1", "settings": "10 μM, 24 hours", "protocol": "as §1"}, "PARP1 [6]": {"tested_on": "PARP1", "assay": "qPCR DNA repair gene expression in OE33P: PARP1", "settings": "10 μM, 24 hours", "protocol": "as §1"}, "[7]": {"tested_on": "OE33P radiosensitive oesophageal adenocarcinoma cells", "assay": "Seahorse ECAR (glycolysis) in OE33P", "settings": "10 μM, 24 hours", "protocol": "as §2"}, "MMS19 [8]": {"tested_on": "MMS19", "assay": "qPCR DNA repair gene expression in OE33P: MMS19", "settings": "10 μM, 24 hours, p<0.01", "protocol": "as §1"}, "[9]": {"tested_on": "HT29-LUC radioresistant colorectal adenocarcinoma cells", "assay": "Seahorse OCR (oxidative phosphorylation) in HT29-LUC", "settings": "10 μM, 24 hours, p<0.01", "protocol": "HT29-LUC radioresistant colorectal adenocarcinoma cells were used to test the effects of the compound 4 on oxidative phosphorylation. Cells were maintained in McCoy's 5A media supplemented with 10% foetal calf serum. A total of 20,000 cells, in 100 μl media, were seeded per well in 24 well plates and left to incubate for 24 hours, with an additional 150 μl media added after 5 hours. The media was replaced with solutions containing 10 μM of compound 4 or the equivalent volume of DMSO vehicle control. After 24 hours of treatment, media was replaced with modified DMEM supplemented with 0.5 mM glucose. Rates of oxidative phosphorylation were determined using Seahorse Biosciences metabolism technology. The media was disposed and the cells washed with PBS. The cells were fixed with 1% glutaraldehyde for 15 minutes and then stained with crystal violet for 30 minutes. The plates were blotted and dried overnight. The cells were resuspended with 1% TritonX-100 and shaken for 15 minutes. The absorbance was read on a spectrophotometer at 595 nm Rates of oxidative phosphorylation were then normalised to cell number."}, "MLH1 [10]": {"tested_on": "MLH1", "assay": "qPCR DNA repair gene expression in HT29-LUC: MLH1", "settings": "10 μM, 24 hours, p<0.01", "protocol": "HT29-LUC radioresistant colorectal adenocarcinoma cells were used to test the effects of the compound 4 on DNA repair gene expression. Cells were maintained in McCoy's 5A media supplemented with 10% foetal calf serum. A total of 300,000 cells, in 2 ml media, were seeded per well in 6 well plates and left to incubate for 24 hours. The media was replaced with solutions containing 10 μM of compound 4 or the equivalent volume of DMSO vehicle control. After 24 hours of treatment, RNA was extracted from the cells and converted to cDNA. qPCR was then conducted."}, "[11]": {"tested_on": "OE33P radiosensitive oesophageal adenocarcinoma cells", "assay": "Seahorse OCR (oxidative phosphorylation) in OE33P", "settings": "10 μM, 24 hours", "protocol": "as §2, with “radiosensitive” for “radiosensitive oesophageal adenocarcinoma cells”, “oxidative phosphorylation.” for “glycolysis.”, “11,000 OE33P” for “11,000”, “and” for “(OE33P) or”, “OE33R cells,” for “cells (OE33R),”, “oxidative phosphorylation” for “glycolysis”"}, "MMS19 [12]": {"tested_on": "MMS19", "assay": "qPCR DNA repair gene expression in OE33R: MMS19", "settings": "10 μM, 24 hours", "protocol": "as §1"}},
  "data": [
    {"molecule": "Cl.Oc1ccccc1/C=C/c1cnccn1", "note": "[Compound 4, (E)-2-[2-(Pyrazin-2-yl)vinyl]phenol hydrochloride]", "values": [
      {"measurement": "expression of PARP1 (qPCR)", "setting": "PARP1 [1]", "result": "not significantly different to control"},
      {"measurement": "extracellular acidification rate (ECAR), a measure of glycolysis", "setting": "[2]", "result": "does not significantly reduce extraceullar acidification rate"},
      {"measurement": "oxygen consumption rate (OCR), a measure of oxidative phosphorylation", "setting": "[3]", "result": "does significantly reduce OCR"},
      {"measurement": "extracellular acidification rate (ECAR), a measure of glycolysis", "setting": "[4]", "result": "does not significantly reduce extraceullar acidification rate"},
      {"measurement": "expression of MLH1 (qPCR)", "setting": "MLH1 [5]", "result": "not significantly different to control"},
      {"measurement": "expression of PARP1 (qPCR)", "setting": "PARP1 [6]", "result": "not significantly different to control"},
      {"measurement": "extracellular acidification rate (ECAR), a measure of glycolysis", "setting": "[7]", "result": "does not significantly reduce extraceullar acidification rate"},
      {"measurement": "expression of MMS19 (qPCR)", "setting": "MMS19 [8]", "result": "significantly reduces the expression of MMS19"},
      {"measurement": "oxygen consumption rate (OCR), a measure of oxidative phosphorylation", "setting": "[9]", "result": "significantly reduces oxygen consumption rate"},
      {"measurement": "expression of MLH1 (qPCR)", "setting": "MLH1 [10]", "result": "significantly reduces the expression of MLH1"},
      {"measurement": "oxygen consumption rate (OCR), a measure of oxidative phosphorylation", "setting": "[11]", "result": "does not significantly reduce oxygen consumption rate"},
      {"measurement": "expression of MMS19 (qPCR)", "setting": "MMS19 [12]", "result": "not significantly different to control"}
    ]}
  ]
}
